According to ChEMBL document CHEMBL4311972, “Discovery of a benzothiophene-flavonol halting miltefosine and antimonial drug resistance in Leishmania parasites through the application of medicinal chemistry, screening and genomics” (Eur J Med Chem, 2019):
Activity calls are given as the source filed them. No cut-off for these calls is given here.

Assays:
WI-38 = assay: Cytostatic activity against human WI38 cells assessed as reduction in cell growth incubated for 48 hrs by Celltiter-Glo luminescence assay; type: cell-based; conditions: wi-38, 48 h
Leishmania infantum [1] = assay: Anti-leishmanial activity against Leishmania infantum BCN150 promastigotes infected in Syrian hamster assessed as decrease in anti-leishmanial IgG level at 40 mg/kg/day, po for 10 days formulated with 30 to 50 % v/v cyclodextrin by ELISA; type: functional, organism-based
Leishmania donovani [2] = assay: Antileishmanial activity against antimony resistant Leishmania donovani BPK190 promastigotes infected in C57BL/6 mouse bone marrow-derived macrophages assessed as reduction in parasite load at 5 uM treated with compound at 24 hrs post-infection measured after 72 hrs post infection by q-PCR analysis relative to control; type: functional
Albumin [3] = target: T1, Albumin (Bos taurus, UniProt P02769); assay: Binding affinity to bovine serum albumin in phosphate buffer assessed as increase in emission anisotropy at 530 nm at 5 uM measured at pH 8 by fluorescence emission spectrum analysis; type: ADME; conditions: cattle, isolated protein
[4] = Binding affinity to pepsin in porcine gastric mucosa in phosphate buffer assessed as compound lifetime at 530 nm at 5 uM measured at pH 8 by fluorescence emission spectrum analysis; type: ADME, Sus scrofa; conditions: pig
Beta-casein = target: T2, Beta-casein (Bos taurus, UniProt P02666); assay: Binding affinity to bovine milk beta-casein in phosphate buffer assessed as increase in emission intensity at 530 nm at 5 uM measured at pH 8 by fluorescence emission spectrum analysis; type: ADME; conditions: cattle
T2 sequence (P02666 whole entry): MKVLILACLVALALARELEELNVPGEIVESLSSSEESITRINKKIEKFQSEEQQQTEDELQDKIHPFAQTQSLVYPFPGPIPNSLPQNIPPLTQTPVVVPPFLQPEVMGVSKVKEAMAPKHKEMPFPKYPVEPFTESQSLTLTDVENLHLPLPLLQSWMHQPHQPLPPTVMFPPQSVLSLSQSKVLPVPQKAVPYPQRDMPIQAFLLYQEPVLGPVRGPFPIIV

[5] = Toxicity in Syrian hamster infected with Leishmania infantum BCN150 promastigotes assessed as spleen weight at 40 mg/kg/day, po for 10 days formulated with 8% v/v DMSO (reference value: 0.182 +/- 0.036 g); type: organism-based, Mesocricetus auratus; conditions: in vivo, 240 h
[6] = Toxicity in Syrian hamster infected with Leishmania infantum BCN150 promastigotes assessed as adverse effects at 20 mg/kg/every 12 hrs, po for 10 days formulated with 50% v/v cyclodextrin measured daily; type: organism-based, Mesocricetus auratus; conditions: in vivo
Leishmania infantum [7] = assay: Antileishmanial activity against Leishmania infantum amastigotes infected in Syrian hamster assessed as reduction in parasite load at 40 mg/kg/day, po for 10 days formulated with 30% v/v cyclodextrin relative to control; type: functional; conditions: 240 h
Leishmania donovani [8] = assay: Antileishmanial activity against Leishmania donovani 1SR promastigotes assessed as parasite growth at IC50 concentration incubated with compound for 3 days under selective pressure and selection cycle repeated 10 times for total of 33 days and measured at 3 to 33 days of selection relative to control; type: functional
Albumin [9] = target: Albumin (Homo sapiens, UniProt P02768); assay: Binding affinity to human serum albumin in phosphate buffer assessed as increase in emission anisotropy at 530 nm at 5 uM measured at pH 8 by fluorescence emission spectrum analysis; type: ADME; conditions: isolated protein
Leishmania infantum [10] = assay: Antileishmanial activity against Leishmania infantum amastigotes infected in Syrian hamster assessed as parasite load within liver at 40 mg/kg/day, po for 10 days formulated with 50% v/v cyclodextrin (reference value: 5000000.000 +/- 1673320.053/g); type: functional
[11] = Toxicity in Syrian hamster infected with Leishmania infantum BCN150 promastigotes assessed as effect on plasma creatinine level at 40 mg/kg/day, po for 10 days formulated with 8% v/v DMSO; type: organism-based, Mesocricetus auratus; conditions: in vivo, 240 h
[12] = Toxicity in Syrian hamster infected with Leishmania infantum BCN150 promastigotes assessed as effect on plasma urea level at 40 mg/kg/day, po for 10 days formulated with 8% v/v DMSO; type: organism-based, Mesocricetus auratus; conditions: in vivo, 240 h
[13] = Toxicity in Syrian hamster infected with Leishmania infantum BCN150 promastigotes assessed as spleen lesions at 40 mg/kg/day, po for 10 days formulated with 8% v/v DMSO measured under necropsy; type: organism-based, Mesocricetus auratus; conditions: in vivo, 240 h
Albumin [14] = target: T1, Albumin; assay: Binding affinity to bovine serum albumin in phosphate buffer assessed as decrease in emission intensity at 450 nm at 5 uM measured at pH 8 by fluorescence emission spectrum analysis; type: ADME; conditions: cattle, isolated protein
[15] = Toxicity in Syrian hamster infected with Leishmania infantum BCN150 promastigotes assessed as spleen weight at 40 mg/kg/day, po for 10 days formulated with 30% v/v cyclodextrin (reference value: 0.183 +/- 0.04 g); type: organism-based, Mesocricetus auratus; conditions: in vivo, 240 h
[16] = Chemical stability of compound in PBS at 20 uM at pH 8 exposed to air bubbling followed by supplementation with human serum albumin measured for 6 hrs by UV-vis spectrophotometry analysis; type: physicochemical
[17] = Binding affinity to trypsin in bovine pancreas in phosphate buffer assessed as increase in emission intensity at 530 nm at 5 uM measured at pH 8 by fluorescence emission spectrum analysis; type: ADME, Bos taurus; conditions: cattle
[18] = Chemical stability of compound in PBS at 20 uM at pH 8 exposed to 2-mins nitrogen bubbling followed by supplementation with human serum albumin measured for 6 hrs by UV-vis spectrophotometry analysis; type: physicochemical
[19] = Toxicity in Syrian hamster infected with Leishmania infantum BCN150 promastigotes assessed as effect on plasma creatinine level at 40 mg/kg/day, po for 10 days formulated with 30 to 50% v/v cyclodextrin measured after the last treatment; type: organism-based, Mesocricetus auratus; conditions: in vivo, 240 h
[20] = Chemical stability of compound in PBS assessed as decrease in absorbance at 60 uM at pH 7 to 8 and 25 degC measured within 50 mins under dark conditions by UV-vis spectrophotometry analysis; type: physicochemical; conditions: read-out: Drug degradation
[21] = Toxicity in Syrian hamster infected with Leishmania infantum BCN150 promastigotes assessed as effect on AST level at 20 mg/kg/day, po for 10 days measured after the last treatment; type: organism-based, Mesocricetus auratus; conditions: in vivo, 240 h
[22] = Toxicity in Syrian hamster infected with Leishmania infantum BCN150 promastigotes assessed as effect on ALT level at 20 mg/kg/day, po for 10 days measured after the last treatment; type: organism-based, Mesocricetus auratus; conditions: in vivo, 240 h
Leishmania infantum [23] = assay: Antileishmanial activity against Leishmania infantum amastigotes infected in Syrian hamster assessed as reduction in parasite load in spleen at 20 mg/kg/day, po for 10 days relative to control; type: functional; conditions: 240 h
[24] = Toxicity in Syrian hamster infected with Leishmania infantum BCN150 promastigotes assessed as itching effect at 20 mg/kg/day, po for 10 days measured daily; type: organism-based, Mesocricetus auratus; conditions: in vivo, 240 h
[25] = Toxicity in Syrian hamster infected with Leishmania infantum BCN150 promastigotes assessed as nausea at 20 mg/kg/day, po for 10 days measured daily; type: organism-based, Mesocricetus auratus; conditions: in vivo, 240 h
[26] = Toxicity in Syrian hamster infected with Leishmania infantum BCN150 promastigotes assessed as effect on alkaline phosphatase level at 20 mg/kg/day, po for 10 days measured after the last treatment; type: organism-based, Mesocricetus auratus; conditions: in vivo, 240 h
Leishmania infantum [27] = assay: Antileishmanial activity against Leishmania infantum amastigotes infected in Syrian hamster assessed as parasite load within liver at 20 mg/kg/day, po for 10 days (reference value: 5333333.333 +/- 3011090.611/g); type: functional
Leishmania donovani [28] = assay: Antileishmanial activity against Leishmania donovani BPK091 promastigotes transfected with Leishmania donovani BPK190 genomic cosmid DNA assessed as parasite growth at IC75 concentration incubated for 3 days under selective pressure and selection cycle repeated for 25 passages and measured at 43 to 78 days of selection relative to control; type: functional

T1 sequence (P02769 whole entry): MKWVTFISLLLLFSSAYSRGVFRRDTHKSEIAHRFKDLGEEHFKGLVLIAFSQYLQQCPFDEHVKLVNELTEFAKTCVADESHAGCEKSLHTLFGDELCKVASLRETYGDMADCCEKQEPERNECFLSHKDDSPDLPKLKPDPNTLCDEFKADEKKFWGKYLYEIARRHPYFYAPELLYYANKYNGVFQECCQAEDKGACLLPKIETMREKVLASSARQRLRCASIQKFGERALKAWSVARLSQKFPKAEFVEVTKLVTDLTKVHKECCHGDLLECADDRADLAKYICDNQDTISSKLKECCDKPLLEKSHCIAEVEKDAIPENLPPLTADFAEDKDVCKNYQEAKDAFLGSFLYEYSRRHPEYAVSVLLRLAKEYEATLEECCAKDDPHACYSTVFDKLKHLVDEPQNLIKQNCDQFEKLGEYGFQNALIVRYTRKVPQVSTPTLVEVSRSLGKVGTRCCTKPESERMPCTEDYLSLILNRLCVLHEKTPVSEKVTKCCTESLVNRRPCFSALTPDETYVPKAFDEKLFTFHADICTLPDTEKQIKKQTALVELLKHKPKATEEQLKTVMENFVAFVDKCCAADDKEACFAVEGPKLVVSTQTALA
Albumin (Homo sapiens, UniProt P02768), sequence (P02768 whole entry): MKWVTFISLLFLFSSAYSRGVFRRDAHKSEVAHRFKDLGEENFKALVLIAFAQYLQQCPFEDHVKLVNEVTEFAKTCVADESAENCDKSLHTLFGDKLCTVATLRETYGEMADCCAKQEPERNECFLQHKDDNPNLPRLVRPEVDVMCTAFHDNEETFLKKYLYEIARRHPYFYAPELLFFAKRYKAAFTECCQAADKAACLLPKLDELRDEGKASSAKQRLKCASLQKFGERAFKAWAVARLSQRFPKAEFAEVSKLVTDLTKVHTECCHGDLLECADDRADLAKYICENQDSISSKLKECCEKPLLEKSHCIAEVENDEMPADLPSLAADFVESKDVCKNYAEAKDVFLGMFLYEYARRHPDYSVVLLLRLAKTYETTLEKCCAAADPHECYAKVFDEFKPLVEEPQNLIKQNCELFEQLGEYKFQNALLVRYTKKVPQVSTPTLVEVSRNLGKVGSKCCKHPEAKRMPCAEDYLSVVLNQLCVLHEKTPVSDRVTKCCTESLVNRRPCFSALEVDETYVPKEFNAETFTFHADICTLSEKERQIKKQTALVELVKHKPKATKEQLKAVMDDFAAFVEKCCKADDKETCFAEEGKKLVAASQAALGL

SMILES: COc1ccc2oc(-c3csc4ccccc34)c(O)c(=O)c2c1
- Activity (WI-38): Toxic
- inhibition (Leishmania infantum [1]): Active
- inhibition at 5 µM (Leishmania donovani [2]): 78%
- Activity (Albumin [3]): Active
- Time [4]: 5.5 nanoseconds
- Activity (Beta-casein): Active
- Activity [5]: 0.19 g
- Activity [6]: Non-Toxic
- inhibition in vivo at 40 mg/kg/day (Leishmania infantum [7]): 28.8%
- Activity (Leishmania donovani [8]): <50%
- Activity (Albumin [9]): Active
- Activity (Leishmania infantum [10]): 4000000 g⁻¹
- Activity [11]: Non-Toxic
- Activity [12]: Non-Toxic
- Activity [13]: Non-Toxic
- Activity (Albumin [14]): Active
- Activity [15]: 0.719 g
- Stability [16]: Stable
- Activity [17]: Active
- Stability [18]: Stable
- Activity [19]: Non-Toxic
- degraded at 50 min, 60 µM [20]: 80%

SMILES: CCCCCCCCCCCCCCCCOP(=O)([O-])OCC[N+](C)(C)C [MILTEFOSINE]
- Activity [21]: Non-Toxic
- Activity [22]: Non-Toxic
- inhibition in vivo at 20 mg/kg/day (Leishmania infantum [23]): 97.3%
- Activity [24]: Toxic
- Activity [25]: Toxic
- Activity [26]: Non-Toxic
- Activity (Leishmania infantum [27]): 1000000 g⁻¹
- Activity (Leishmania donovani [28]): >75%
